The values below come from ChEMBL document CHEMBL1147287, “Antitumor agents, 107. New cytotoxic 4-alkylamino analogues of 4'-demethyl-epipodophyllotoxin as inhibitors of human DNA topoisomerase II” (1989).

The target in test [1] is DNA topoisomerase 2-alpha (Homo sapiens) (UniProt P11388). Nature of the test: Inhibition of DNA topoisomerase 2 in human KB cells assessed as enzyme-[methyl-3H]thymidine-labeled DNA complex formation at 10 uM after 1 hr by K-SDS precipitation assay. The class given is cell-based.
Chain of DNA topoisomerase 2-alpha (Homo sapiens) (P11388 whole entry): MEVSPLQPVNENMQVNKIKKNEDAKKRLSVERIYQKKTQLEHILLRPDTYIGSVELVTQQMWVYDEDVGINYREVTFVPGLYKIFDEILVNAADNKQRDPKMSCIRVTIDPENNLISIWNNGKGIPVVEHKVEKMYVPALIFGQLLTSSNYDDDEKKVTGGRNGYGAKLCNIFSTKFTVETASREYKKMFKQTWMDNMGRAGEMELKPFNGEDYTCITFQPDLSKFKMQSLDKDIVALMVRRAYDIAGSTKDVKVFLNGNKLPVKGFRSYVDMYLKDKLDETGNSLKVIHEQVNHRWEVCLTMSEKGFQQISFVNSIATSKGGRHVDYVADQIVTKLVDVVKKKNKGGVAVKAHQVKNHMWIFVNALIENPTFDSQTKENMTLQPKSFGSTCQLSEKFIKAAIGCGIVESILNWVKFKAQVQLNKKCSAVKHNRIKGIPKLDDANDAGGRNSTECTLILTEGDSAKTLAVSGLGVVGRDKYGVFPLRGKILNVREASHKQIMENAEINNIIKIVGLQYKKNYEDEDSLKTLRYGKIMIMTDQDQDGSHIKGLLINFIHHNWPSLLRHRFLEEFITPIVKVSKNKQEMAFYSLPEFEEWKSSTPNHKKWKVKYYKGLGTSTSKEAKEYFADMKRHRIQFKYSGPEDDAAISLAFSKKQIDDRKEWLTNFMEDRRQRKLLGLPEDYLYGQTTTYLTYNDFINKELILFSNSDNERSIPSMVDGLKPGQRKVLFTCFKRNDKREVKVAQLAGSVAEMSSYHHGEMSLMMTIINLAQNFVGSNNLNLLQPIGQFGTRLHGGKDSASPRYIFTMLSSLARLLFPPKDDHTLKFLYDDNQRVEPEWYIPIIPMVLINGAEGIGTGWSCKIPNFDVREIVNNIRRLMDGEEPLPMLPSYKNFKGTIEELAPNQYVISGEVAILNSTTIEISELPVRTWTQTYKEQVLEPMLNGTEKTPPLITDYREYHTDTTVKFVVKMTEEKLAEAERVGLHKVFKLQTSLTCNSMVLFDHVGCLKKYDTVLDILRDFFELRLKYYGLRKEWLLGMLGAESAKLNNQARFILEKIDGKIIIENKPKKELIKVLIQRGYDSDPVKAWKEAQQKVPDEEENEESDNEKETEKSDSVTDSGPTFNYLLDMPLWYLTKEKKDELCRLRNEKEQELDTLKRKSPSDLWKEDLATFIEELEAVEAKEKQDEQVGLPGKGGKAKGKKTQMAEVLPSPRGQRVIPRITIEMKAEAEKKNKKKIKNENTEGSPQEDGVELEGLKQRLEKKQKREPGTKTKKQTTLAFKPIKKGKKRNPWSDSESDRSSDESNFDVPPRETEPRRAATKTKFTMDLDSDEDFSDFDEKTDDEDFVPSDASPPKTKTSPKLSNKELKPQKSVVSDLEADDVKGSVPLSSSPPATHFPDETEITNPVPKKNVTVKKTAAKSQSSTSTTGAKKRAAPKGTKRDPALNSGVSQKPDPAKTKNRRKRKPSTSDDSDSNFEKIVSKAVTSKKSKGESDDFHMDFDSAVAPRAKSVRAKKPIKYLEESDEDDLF
Test [2] shares this target. The test can be described thus: Inhibition of human DNA topoisomerase 2 assessed as bacteriophage P4 DNA unknotting at 100 uM after 30 mins by agarose gel electrophoresis.
The next test relates to KB. Nature of the test: Cytotoxicity against human KB cells assessed as reduction in cell number after 3 days by crystal violet staining. The class given is functional. The note with it: 72 h, read-out: ED50 (the source's name).
Test [3] addresses DNA topoisomerase 2-alpha (Homo sapiens) (UniProt P11388). The test can be described thus: Inhibition of DNA topoisomerase 2 in human KB cells assessed as enzyme-[methyl-3H]thymidine-labeled DNA complex formation at 5 uM after 1 hr by K-SDS precipitation assay. The class given is cell-based.
Test [4] has the same target. Nature of the test: Inhibition of human DNA topoisomerase 2 assessed as bacteriophage P4 DNA unknotting after 30 mins by agarose gel electrophoresis.
Test [5] in a line: Inhibition of microtubule polymerization.

Converted amounts (≈) assume the structure as drawn. The source made the active and inactive calls. The rule behind the calls is not given here. Bounds are passed on as bounds.

Take `COc1cc([C@@H]2c3cc4c(cc3[C@@H](O)[C@H]3COC(=O)[C@H]23)OCO4)cc(OC)c1O` [4'-DEMETHYLEPIPODOPHYLLOTOXIN]: the inhibition in test [1] was 42.2%; in test [2], 50%. For the same compound, the EC50 with KB stood at 0.34 µg/mL (≈ 0.849 µM).

As for `COc1cc([C@@H]2c3cc4c(cc3[C@@H](O[C@@H]3O[C@@H]5CO[C@@H](C)O[C@H]5[C@H](O)[C@H]3O)[C@H]3COC(=O)[C@H]23)OCO4)cc(OC)c1O` [ETOPOSIDE], the inhibition in test [1] was 100%; in test [2] it was above 75%; in test [3], 56.2%. In addition, the ID50 in test [4] was found to be 50 µM. For the same compound, the EC50 in the test on KB was determined as 0.16 µg/mL (≈ 0.272 µM).

As for `COc1cc([C@@H]2c3cc4c(cc3[C@@H](NCC(C)O)[C@H]3COC(=O)[C@H]23)OCO4)cc(OC)c1O` (stereo not given in full), the inhibition in test [2] was above 75%; in test [3], 83.9%. In test [4], the ID50 worked out at 25 µM. The EC50 in the test with KB is 3.6 µg/mL (≈ 7.87 µM).

With `CCCN[C@@H]1c2cc3c(cc2[C@@H](c2cc(OC)c(O)c(OC)c2)[C@H]2C(=O)OC[C@@H]21)OCO3`, the inhibition is 69.7% in test [1] and 50% in test [2]. The EC50 in the test on KB was below 0.4 µg/mL.

Take `C=CCN[C@@H]1c2cc3c(cc2[C@@H](c2cc(OC)c(O)c(OC)c2)[C@H]2C(=O)OC[C@@H]21)OCO3`: the inhibition in test [1] worked out at 84.2%; in test [2] it was 75%. The EC50 in the test on KB came out at 3.4 µg/mL (≈ 7.74 µM).

For the compound `COc1cc([C@@H]2c3cc4c(cc3[C@@H](NCCCO)[C@H]3COC(=O)[C@H]23)OCO4)cc(OC)c1O`, the inhibition stood at 89.2% in test [1] and 50% in test [2]. In the test on KB, the EC50 was 4 µg/mL (≈ 8.74 µM).

Take `COc1cc([C@@H]2c3cc4c(cc3[C@@H](NCCO)[C@H]3COC(=O)[C@H]23)OCO4)cc(OC)c1O`: the inhibition is 121% in test [1], above 75% in test [2] and 70.1% in test [3]. In addition, the ID50 in test [4] turned out to be 50 µM. Besides, the EC50 in the test with KB is 1.6 µg/mL (≈ 3.61 µM).

For the compound `COc1cc([C@@H]2c3cc4c(cc3[C@H](N)[C@H]3COC(=O)[C@H]23)OCO4)cc(OC)c1O`, the inhibition in test [1] came to 8%; in test [2], 25%. In addition, in the test with KB, the EC50 came to 0.25 µg/mL (≈ 0.626 µM).

In the case of `COc1cc([C@@H]2c3cc4c(cc3[C@@H](NC(C)CO)[C@H]3COC(=O)[C@H]23)OCO4)cc(OC)c1O` (stereo not given in full), the inhibition was above 75% in test [2] and 89.3% in test [3]. For the same compound, the ID50 in test [4] came to 25 µM. Also, in the test with KB, the EC50 was 2.3 µg/mL (≈ 5.03 µM).

As to `COCCN[C@@H]1c2cc3c(cc2[C@@H](c2cc(OC)c(O)c(OC)c2)[C@H]2C(=O)OC[C@@H]21)OCO3`, the inhibition is 111% in test [1] and 75% in test [2]. Besides, the EC50 in the test on KB is above 4 µg/mL.

In the case of `COc1cc([C@@H]2c3cc4c(cc3[C@H](O)[C@H]3COC(=O)[C@H]23)OCO4)cc(OC)c1O`, the inhibition in test [1] was 3.3%; in test [2] it was 25%. In addition, in the test on KB, the EC50 amounted to 0.045 µg/mL (≈ 0.112 µM).

Take `COc1cc([C@@H]2c3cc4c(cc3[C@H](O)[C@H]3COC(=O)[C@H]23)OCO4)cc(OC)c1OC`: the outcome in test [5] was inactive.

Consider `COc1cc([C@@H]2c3cc4c(cc3[C@@H](N)[C@H]3COC(=O)[C@H]23)OCO4)cc(OC)c1O`, for which the figures for the inhibition in test [1] and in test [2] were 36.4% and 50%, respectively. Further, the EC50 in the test with KB was 0.19 µg/mL (≈ 0.476 µM).

Consider `COc1cc([C@@H]2c3cc4c(cc3[C@H](NCCO)[C@H]3COC(=O)[C@H]23)OCO4)cc(OC)c1O`, for which the inhibition in test [1] came to 0%. Moreover, in the test with KB, the EC50 is above 1 µg/mL.
